From patent US20090275667A1, “USE OF ALLICIN AS PRESERVATIVE, AS DISINFECTANT, AS ANTIMICROBIAL OR AS BIOCIDAL AGENT” (Stone Island Holdings Ltd, priority 2003, published 2009)

How the values were obtained:
[1] = tested on: methicillin resistant Staphylococcus aureus (MRSA); details: certain species of MRSA; earlier application WO03/024437; cited from earlier work
B. laterosporus = assay: Investigation into bacteriostatic or bactericidal effects (Study 2); assay type: cell-based, Brevibacillus laterosporus; details: conclusion from subculture into fresh media
Protocol: Where there was no growth in a replicate, at the end of one week the culture was plated out for single colonies on the appropriate agar. This was to determine whether the test item had bactericidal activity, where all the bacterial cells are killed, or bacteriostatic action, where the cells are unable to replicate in the presence of the substance, but will grow when it is removed. A further test, where 0.5 ml of the broth was transferred into 4.5 ml fresh broth (giving a 1:10 dilution) was also undertaken. There would still be some Allicin in the broth, but it should be present at a low enough concentration for growth not to be affected. Where growth occurred in the absence of Allicin, the broth was examined microscopically and plated out for single colonies to confirm the identity of the bacterium.

[2] = tested on: protozoal parasite associated with Leishmaniasis; assay: Confirmatory in vitro test against the Leishmaniasis parasite; assay type: cell-based, Leishmania; details: allicin 5.0 gm per litre
Description: Confirmatory in vitro tests at the University of East London using allicin at a concentration of 5.0 gm per litre has killed the protozoal parasite associated with Leishmaniasis. Taken with extrapolation of the results from the laboratory studies described in PCT/GB2002/004309, we believe that allicin at a concentration of 5000 ppm has efficacy as an antiprotozoal agent.

P. l. larvae = assay: Minimum bactericidal concentration by plating out MIC cultures; assay type: cell-based, Paenibacillus larvae subsp. larvae; details: range of 1000 ppm to 25 ppm
Protocol: Positive controls contained the antibiotic Tylosin (Tylan® 50, Elanco Animal Health Inc., IN) and negative controls contained no antibiotics. Bacterial (P. l. larvae, P. l. pulviphaciens) or fungal (A. apis, A. aggregata) spores (100 μl of approximately 10^8-10^9 spores/ml) were added to a 2.5 ml of bacterial or fungal liquid medium containing serial dilutions of allicin. Cultures were incubated in a shaker at 35° C. and 215 rpm. The optical densities of cultures (OD 600) were recorded 24 h and 48 h post inoculation, depending on the growth rate of the microbial species. […] Minimum bactericidal concentration values (NBC) were determined for allicin by plating out 100 μl of bacterial cultures derived from the MIC assay. Plates were incubated 24 h and 48 h at 33° C. and 6% CO2 to observe microbial growth.

[3] = tested on: Enterococcus hirae (University of Brighton isolate); assay: Modified Kelsey-Sykes test; assay type: cell-based; design: key: CG = Confluent growth
Description: Allicin can be used to displace or supplement existing harmful forms of disinfectant/biocide such as chlorine, sodium hypochlorite, ozone and per-acetic acid all of which can have an adverse effect on the environment. UV radiation is also used for disinfection but power and general running costs are high. Laboratory studies have been conducted on our behalf using allicin on aqueous suspensions of bacterial species commonly used as indicators of the effectiveness of water and wastewater disinfection. To this effect, identified isolates from the faecal coliform and streptococcus groups, namely, Escherichia coli (NCTC 8156) and Enterococcus hirae (University of Brighton isolate) were used in all experiments. […]
(§1) Stock suspensions of Escherichia coli (NCTC 8156) and Enterococcus hirae (University of Brighton isolate) were cultivated in Nutrient Broth No. 2 from freeze dried isolates. Prior to each experiment, serial dilutions of the suspensions were enumerated by the spread plate method on Nutrient Agar and subsequent incubation at 37 deg C.
(§2) Initial experimental procedures were based on the methods set out in an established UK protocol (BS 6905: 1987). The Kelsy-Sykes methodology was developed as a guide to the concentrations of disinfectants which may be recommended for use under “dirty” (wastewater/sewage) conditions. It is therefore a suitable means of establishing the effectiveness of a disinfectant against a wastewater containing particulate and dissolved contaminants in addition to micro-organisms.
(§3) Therefore, with regard to wastewater/sewage considerations, the protocol was adapted. Under the revised methodology, a sample was taken from the bacterial suspension/biocide mix after the prescribed contact time and plated out onto solid media so that a colony count could be made (see Tables 1 and 2).

Bordetella = assay: Zones of Inhibition against common chicken bacteria; assay type: cell-based
Salm. Enteriditis = assay: as above; assay type: cell-based
[4] = tested on: Escherichia coli (NCTC 8156); assay: Modified Kelsey-Sykes test; assay type: cell-based; design: key: CG = Confluent growth
Description: Allicin can be used to displace or supplement existing harmful forms of disinfectant/biocide such as chlorine, sodium hypochlorite, ozone and per-acetic acid all of which can have an adverse effect on the environment. UV radiation is also used for disinfection but power and general running costs are high. Laboratory studies have been conducted on our behalf using allicin on aqueous suspensions of bacterial species commonly used as indicators of the effectiveness of water and wastewater disinfection. To this effect, identified isolates from the faecal coliform and streptococcus groups, namely, Escherichia coli (NCTC 8156) and Enterococcus hirae (University of Brighton isolate) were used in all experiments. An aqueous solution of allicin with a nominal concentration of allicin of 1.8 g per litre ie a 0.18% solution was used.
as §1, §2, §3

[5] = allicin conc. 0.9 % (w/v), 10 mins
[6] = allicin conc. 0.9 % (w/v), 20 mins
[7] = allicin conc. 0.9 % (w/v), 30 mins
[8] = allicin conc. 1.08 % (w/v), 10 mins
[9] = allicin conc. 1.08 % (w/v), 20 mins
[10] = allicin conc. 1.08 % (w/v), 30 mins
[11] = allicin conc. 1.26 % (w/v), 10 mins
[12] = allicin conc. 1.26 % (w/v), 20 mins
[13] = allicin conc. 1.26 % (w/v), 30 mins
[14] = allicin conc. 1.4 % (w/v), 10 mins
[15] = allicin conc. 1.4 % (w/v), 20 mins
[16] = allicin conc. 1.4 % (w/v), 30 mins
[17] = allicin conc. 1.44 % (w/v), 10 mins
[18] = allicin conc. 1.44 % (w/v), 20 mins
[19] = allicin conc. 1.62 % (w/v), 10 mins
[20] = allicin conc. 1.62 % (w/v), 20 mins
[21] = allicin conc. 1.62 % (w/v), 30 mins

C=CCS[S+]([O-])CC=C (stereo not drawn) [allicin, Allicin]
susceptibility of MRSA to allicin [1]: exceptionally susceptible | bacteriostatic or bactericidal effect (B. laterosporus): did not kill all bacteria | killing of the protozoal parasite [2]: killed | bacteriostatic or bactericidal activity (P. l. larvae): only bacteriostatic (no bactericidal) activity | Numbers of colony forming units killed [3, 5]: CG | Percentage reduction in colony forming units [3, 5]: CG | Numbers of colony forming units killed [3, 6]: CG | Percentage reduction in colony forming units [3, 6]: CG | Numbers of colony forming units killed [3, 7]: CG | Percentage reduction in colony forming units [3, 7]: CG | Numbers of colony forming units killed [3, 8]: CG | Percentage reduction in colony forming units [3, 8]: CG | Numbers of colony forming units killed [3, 9]: CG | Percentage reduction in colony forming units [3, 9]: CG | Percentage reduction in colony forming units [3, 10]: 77% | Numbers of colony forming units killed [3, 11]: CG | Percentage reduction in colony forming units [3, 11]: CG | Numbers of colony forming units killed [3, 12]: CG | Percentage reduction in colony forming units [3, 12]: CG | Percentage reduction in colony forming units [3, 13]: 91% | Percentage reduction in colony forming units [3, 14]: CG | Percentage reduction in colony forming units [3, 15]: CG | Percentage reduction in colony forming units [3, 16]: 87% | Numbers of colony forming units killed [3, 17]: CG | Numbers of colony forming units killed [3, 18]: CG | Numbers of colony forming units killed [3, 19]: CG | Percentage reduction in colony forming units [3, 19]: CG | Numbers of colony forming units killed [3, 20]: CG | Percentage reduction in colony forming units [3, 20]: CG | Percentage reduction in colony forming units [3, 21]: 89% | zone of inhibition at 166 ppm (Bordetella; 166 ppm (1:6 dilution)): 18 mm | zone of inhibition at 1000 ppm (Bordetella; 1000 ppm): 36 mm | zone of inhibition (Salm. Enteriditis; 166 ppm (1:6 dilution)): 0 mm | zone of inhibition (Salm. Enteriditis; 1000 ppm): 22 mm | Numbers of colony forming units killed [4, 5]: CG | Percentage reduction in colony forming units [4, 5]: CG | Numbers of colony forming units killed [4, 6]: CG | Percentage reduction in colony forming units [4, 6]: CG | Numbers of colony forming units killed [4, 7]: CG | Percentage reduction in colony forming units [4, 7]: CG | Numbers of colony forming units killed [4, 8]: CG | Percentage reduction in colony forming units [4, 8]: CG | Numbers of colony forming units killed [4, 9]: CG | Percentage reduction in colony forming units [4, 9]: CG | Percentage reduction in colony forming units [4, 10]: 94% | Numbers of colony forming units killed [4, 11]: CG | Percentage reduction in colony forming units [4, 11]: CG | Numbers of colony forming units killed [4, 12]: CG | Percentage reduction in colony forming units [4, 12]: CG | Percentage reduction in colony forming units [4, 13]: 97% | Percentage reduction in colony forming units [4, 14]: CG | Percentage reduction in colony forming units [4, 15]: CG | Percentage reduction in colony forming units [4, 16]: 89% | Numbers of colony forming units killed [4, 17]: CG | Numbers of colony forming units killed [4, 18]: CG | Numbers of colony forming units killed [4, 19]: CG | Percentage reduction in colony forming units [4, 19]: CG | Numbers of colony forming units killed [4, 20]: CG | Percentage reduction in colony forming units [4, 20]: CG | Percentage reduction in colony forming units [4, 21]: 83%
